According to patent US20210317102A1, “INHIBITORS OF INTEGRATED STRESS RESPONSE PATHWAY” (Praxis Biotech LLC, priority 2019, published 2021):

What was measured:
Type in all cases: cell-based
[1] = system: L-Wnt-3A cells; test: Secretion of Wnt-3A by L-Wnt-3A cells; conditions: 1 µM compound 10, DMEM with reduced FBS (1%), 24 hours, vs vehicle
Experimental: L-Wnt-3A cells (ATCC® CRL-2647™) were maintained at 37° C. and 5% CO2 in DMEM supplemented with 10% fetal bovine serum (FBS), 2 mM L-glutamine, 100 U/ml penicillin, and 100 μg/ml streptomycin. After reaching 80% of confluence, cells were detached and seeded on 6-well plates in complete media, allowed to recover for 48 h. Cells were then washed three times with PBS and treated with vehicle (1% DMSO) or 1 µM compound 10 in DMEM with reduced FBS (1%) for 24 hours. Then, culture media with cells were recovered in microtubes and centrifuged at 500 g for 5 minutes. Supernatants (SN) which contain secreted proteins were extracted and protease and phosphatase inhibitors (Roche) were added to each sample. SN were centrifuged at 2,000 g for 10 min to discard any cellular debris and 900 μL SN were transferred to empty microtubes with […] methanol by mixing well. 200 μL of chloroform was added to the mix and then samples were centrifuged at 14,000 g for 2 minutes. […] Quantification of protein bands was done by densitometry using ImageJ software.
Percent of secreted Wnt-3A by L-Wnt3A cells treated with vehicle or compound 10 from two independent experiments is shown in FIG. 5. Percentage was calculated as the percent relative to […] secretion levels from L-Wnt-3A cells treated with vehicle which correspond to 100%.

[2] = system: ARH cells; test: Secretion of Ig-kappa by ARH cells; conditions: 1 µM of compound 10 for 24 hours, vs vehicle (0.1% DMSO)
Experimental: ARH cells were maintained at 37° C. and 5% CO2 and seeded at a density of 500,000 cell/well in RPMI supplemented with, 100 U/ml penicillin, and 100 μg/ml streptomycin in a 12-well culture plate. Cells were treated either with vehicle (0.1% DMSO) or […] of compound 10 for 24 hours. Then, culture media with cells were recovered in microtubes and centrifuged at 500 g for 5 minutes. Supernatants (SN) which contain secreted proteins were extracted and protease and phosphatase inhibitors (Roche) were added to each sample. SN were centrifuged at 2,000 g for 10 min to discard any cellular debris and 900 μL SN were transferred to empty microtubes with 400 μL methanol by mixing well. 200 μL of chloroform was added to the mix and then samples were centrifuged at 14,000 g for 2 minutes. Top aqueous layer was discarded by pipetting off and 400 μL methanol was added to each sample by mixing well. Samples were then centrifuged at 17,000 g for 8 minutes and methanol was discarded by pipetting off without disturbing the protein pellet. […] Quantification of protein bands was done by densitometry using ImageJ software.
Percent of secreted Ig kappa light chain by ARH cells treated with vehicle or compound 10 from three independent experiments is shown in FIG. 4. Percentage was calculated as the percent relative to Ig kappa secretion levels from ARH cells treated with vehicle which correspond to 100%.

[3] = system: Chinese hamster ovary (CHO) cells; test: Protein synthesis assay (puromycin incorporation, western blot); conditions: Cricetulus griseus; unstressed CHO cells (without Tg), 1 μM test compound, 2 hours; media alone = 100%; read-out: % Protein synthesis relative to untreated (1 μM test compound)
Summary of the method: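 CHO cells treated 2 h with 1 μM compound alone, or with 300 nM thapsigargin plus 1 μM compound, then pulsed 30 min with 10 μg/ml puromycin. Puromycin incorporation read by anti-puromycin western blot with densitometry. Unstressed values normalized to media alone (100%); stressed recovery normalized to media alone (100%) and Tg alone (0%).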

With O=C(COc1ccc(Cl)c(F)c1)N[C@H]1CC[C@H](CNC(=O)c2ccc3cc(Cl)ccc3n2)CC1 [Compound 10, trans-6-chloro-N-((4-(2-(4-chloro-3-fluorophenoxy)acetamido)cyclohexyl)methyl)quinoline-2-carboxamide] as the compound, how does the “Secretion of Wnt-3A” value [1] read?
Its value is “increased the secretion of a particular protein (Wnt-3A)”.

What about the “Secretion of Ig kappa light chain” value [2] of the same compound?
The value was “increased the secretion of the immunoglobulin light chain kappa”.

And the activity at 1 µM [3]?
The activity at 1 µM was 229%.
